Data set [1] deals with λ-Carrageenan-Induced Rat Toe Swelling. In words: Anti-inflammatory effect on λ-carrageenan-induced rat toe swelling. It is filed as in vivo, SD rats. Conditions: 10 mg/kg intraperitoneal, 1 h before 1% λ-carrageenan; for inhibition in vivo at 10 mg/kg: Rattus norvegicus, ip. On the procedure: Experimental method: Male SD rats weighing 150-160 g were randomly grouped, with 10 rats in each group. The rats were intraperitoneally injected with saline, the compounds of the present disclosure, and the control drug flurbiprofen or flurbiprofen axetil respectively, all of which were administered at a dose of 10 mg/kg and a dosing volume of 10 μL/g. At 1 h after administration, 100 μL of 1% λ-carrageenan was injected into the right hind toe of each rat to induce inflammation. Afterwards, the paw volume was measured every 1 h using a paw volume meter to calculate the swelling inhibition rate.

In data set [2] the test system is Dry Yeast-Induced Rat Fever Models. The data set can be described thus: Antipyretic effect on dry yeast-induced fever in rats. It is filed as in vivo, SD rats. The following applies: rectal temperature, 10 mg/kg intraperitoneal, 20 min before 20% dry yeast s.c. On the procedure: Experimental method: Male SD rats, aged 4 weeks, were randomly grouped, with 10 rats in each group. […] The rats were intraperitoneally injected with saline, the compounds of the present disclosure or the control drug flurbiprofen respectively, all of which were administered at a dose of 10 mg/kg and a dosing volume of 10 μL/g. At 20 min after administration, 20% active dry yeast suspension was injected subcutaneously. After modeling, the rectal temperatures were measured at 4 h and 8 h.

Data set [3] can be described thus: In vivo pharmacokinetic assay in rats (gavage, plasma). Conditions: female, Sprague Dawley, po, prototype drug in rat plasma, dose equimolar to 50 mg/kg flurbiprofen. The method, then: Experimental method: Adult female Sprague Dawley rats, aged 8-10 weeks and weighing 200±20 g, were randomly grouped, with 3 rats in each group. Rats in each of the groups were administered by gavage at a dose of 50 mg/kg of flurbiprofen and an equimolar dose of other example compounds to 50 mg/kg of flurbiprofen, respectively. After gavage administration, blood was collected at 0.0833 […], and 24 h into sodium heparin anticoagulant tubes, respectively. The blood was collected by the following method: 250 μL of blood were collected from the orbital venous plexuses of the rats. After blood collection, the blood samples were centrifuged at 12000 rpm in a centrifuge for 5 min. All plasma was aspirated into a 1.5-mL centrifuge tube, and the plasma was stored in a refrigerator at -80° C. The pharmacokinetic parameters were determined by the external standard curve method. Sample processing: after the cryopreserved samples were removed and restored to room temperature, the samples were vortexed evenly and then diluted two folds with methanol; the sample solution was diluted 5 folds by adding a mixed extractant of 0.5% formic acid-containing acetonitrile:methanol=7:3, and subjected to vortex oscillation for 1 min. Subsequently, the resultant was centrifuged at 4° C. and 12000 rpm for 10 min, and then 5 μL of the supernatant was measured for assay. The pharmacokinetic parameters in the Examples were calculated using the Winnonlin software.

The subject of the next data set is NUGC-4. In words: Antitumor potency, MTT method, NUGC-4. The data set is classed as cell-based. Conditions: Homo sapiens, 72 h incubation. On the procedure:
(§1) Experimental method: The antitumor potency was tested by the MTT method. Tumor cells at the logarithmic phase were collected. The concentration of the cell suspension was adjusted. 100 μL of the cell suspension was added to each well. Cell plating was carried out and the cell density was adjusted to 1000 to 10000/well (the marginal wells were filled with sterile PBS). The cells were incubated at 5% CO2 and 37° C. until the cells adhered to the wall (96-well flat-bottomed plate). Drugs of different concentration gradients were added, 100 μL per well. Four replicates were set up. Under the conditions of 5% CO2 and 37° C., the cells were incubated for 72 h and observed under an inverted microscope. The prepared MTT solution (5 mg/mL) was added to the 96-well plate, 20 μL per well, mixed well, and incubated for 4 h under the conditions of 37° C. and 5% CO2. Afterwards, the liquid in the plate was discarded. 150 μL of DMSO was added to each well and oscillated for 3 min on a microplate reader. The OD value (optical density) was detected at 490 nm.
(§2) The inhibition rate of the drug against the tumor cell growth was calculated according to the following formula: […]
On the technique in general: Tetrazolium assays rely on reduction of a dye to a coloured formazan, in cell work by metabolically active cells.

For a further data set, the system named is H460. In words: Antitumor potency, MTT method, H460. The data set is classed as cell-based. The following applies: Homo sapiens, NCI-H460, 72 h incubation. The method, then:
as §1, §2

The subject of the next data set is U87. The data set can be described thus: Antitumor potency, MTT method, U87. The data set is classed as cell-based. Conditions: Homo sapiens, U-87 MG, 72 h incubation. On the procedure:
as §1, §2

The next data set deals with Eca-109. The data set can be described thus: Antitumor potency, MTT method, Eca-109. The data set is classed as cell-based. The following applies: Homo sapiens, 72 h incubation. The method, then: as §1, §2
Another data set deals with MM.1S. In words: Antitumor potency, MTT method, MM.1S. The data set is classed as cell-based. The following applies: Homo sapiens, MM1.S, 72 h incubation. The method, then: as §1, §2
Another data set relates to U251. The data set can be described thus: Antitumor potency, MTT method, U251. The data set is classed as cell-based. Conditions: Homo sapiens, U-251, 72 h incubation. The method, then:
as §1, §2

[4] abbreviates: 6 h, read-out: Toe Swelling Inhibition Rate at 6 h.
The mark [5] stands for this setting: 24 h, read-out: Toe Swelling Inhibition Rate at 24 h.

Where two headings read alike, the source gives them in different places. Marks after values point to notes of the source that are not given here.

Regarding `CC(C(=O)OCOC(=O)N1C[C@@H](C)O[C@@H](C)C1)c1ccc(-c2ccccc2)c(F)c1` (stereo partly shown) [Compound 3], the inhibition in vivo at 10 mg/kg in data set [1] (setting [4]) was 45.3%; in data set [1] (setting [5]), 28.1%.
For `CC(C(=O)OCOC(=O)N[C@@H](Cc1ccc(O)cc1)C(=O)O)c1ccc(-c2ccccc2)c(F)c1` (stereo partly shown) [Compound 7], the inhibition in vivo at 10 mg/kg in data set [1] (setting [4]) is 47.9%; in data set [1] (setting [5]), 21.5%.
On to `CC(OC(=O)C(C)c1ccc(-c2ccccc2)c(F)c1)OC(=O)N1CCOCC1` (stereo not shown) [Compound 9], for which, in data set [2], the “Temp. at 4 h After Dosing” value was 37.17 ± 0.23 °C and the “Temp. at 8 h After Dosing” value turned out to be 37.10 ± 0.37 °C.
The corresponding values for `CC(=O)N1CCN(C(=O)OCOC(=O)C(C)c2ccc(-c3ccccc3)c(F)c2)CC1` (stereo not shown) [Compound 15] are 37.16 ± 0.16 °C and 37.27 ± 0.24 °C.
As for `CC(C(=O)OCOC(=O)N(CCO)CCO)c1ccc(-c2ccccc2)c(F)c1` (stereo not shown) [Compound 25], in data set [3], the AUC (as a rule, the area under the concentration-time curve, a measure of exposure) was determined as 63 ± 11.8 µg·h/mL and the Cmax (usually the highest concentration seen after dosing) was 3.87 ± 0.178 µg/mL. Moreover, the half-life in data set [3] (read-out: Prototype Drug t1/2 (converted)) is 8.1 ± 4.42 h.
On to `CCCN(CCC)C(=O)OCOC(=O)[C@@H](C)c1ccc(-c2ccccc2)c(F)c1` [Compound 29], for which the inhibition in vivo at 10 mg/kg in data set [1] (setting [4]) is 45.8%. For the same compound, the inhibition in vivo at 10 mg/kg in data set [1] (setting [5]) stood at 29.6%. For the same compound, in [2], the “Temp. at 4 h After Dosing” value came out at 37.12 ± 0.13 °C and the “Temp. at 8 h After Dosing” value amounted to 37.35 ± 0.23 °C.
Consider `C[C@H](C(=O)OCOC(=O)N1CCC(O)CC1)c1ccc(-c2ccccc2)c(F)c1` [Compound 31], for which the results for the inhibition in vivo at 10 mg/kg in data set [1] (setting [4]) and in data set [1] (setting [5]) were 45.4% and 31.9%, respectively. Also, in data set [2], the “Temp. at 4 h After Dosing” value was 37.12 ± 0.30 °C. In data set [2], the “Temp. at 8 h After Dosing” value amounted to 37.22 ± 0.30 °C.
For `CC(=O)Oc1ccccc1C(=O)OCOC(=O)C(C)c1ccc(-c2ccccc2)c(F)c1` (stereo not shown) [Compound 36] the same measures were 45.3%, 28.1%, 37.38 ± 0.31 °C and 37.24 ± 0.16 °C.
The corresponding values for `CC(C(=O)OCOC(=O)c1ccc(N(C)C)cc1O)c1ccc(-c2ccccc2)c(F)c1` (stereo not shown) [Compound 41] are 43%, 32.2%, 37.19 ± 0.35 °C and 37.30 ± 0.31 °C.
For `COc1cc(COC(=O)C(C)c2ccc(-c3ccccc3)c(F)c2)cc(OC)c1` (stereo not shown) [Compound 47] the same measures were 49.3%, 33.9%, 37.17 ± 0.27 °C and 37.26 ± 0.22 °C.
On to `CC(C(=O)OCc1ccccc1O)c1ccc(-c2ccccc2)c(F)c1` (stereo not shown) [Compound 48], for which, in [1] (setting [4]), the inhibition in vivo at 10 mg/kg was 44.1%. In addition, in [1] (setting [5]), the inhibition in vivo at 10 mg/kg stood at 33.9%. In data set [2], the “Temp. at 4 h After Dosing” value amounted to 37.11 ± 0.23 °C and the “Temp. at 8 h After Dosing” value turned out to be 37.21 ± 0.25 °C.
The corresponding values for `CC(C(=O)OCOC(=O)CCCCCN1C(=O)C=CC1=O)c1ccc(-c2ccccc2)c(F)c1` (stereo not shown) [Compound 53] are 69%, 75.2%, 37.04 ± 0.20 °C and 37.02 ± 0.30 °C.
Consider `CC(C(=O)OCOC(=O)CCN1C(=O)CCC1=O)c1ccc(-c2ccccc2)c(F)c1` (stereo not shown) [Compound 55], for which the inhibition in vivo at 10 mg/kg in data set [1] (setting [4]) is 36.7%; in data set [1] (setting [5]), 41.4%.
For `CC(C(=O)OCOC(=O)CCCN1C(=O)C=CC1=O)c1ccc(-c2ccccc2)c(F)c1` (stereo not shown) [Compound 57] the same measures were 43.8% and 43.4%.
Consider `CCCCN(CCCC)C(=O)OCOC(=O)C(C)c1ccc(-c2ccccc2)c(F)c1` (stereo not shown) [Compound 65], for which the inhibition in vivo at 10 mg/kg in [1] (setting [4]) turned out to be 43.1%. Besides, the inhibition in vivo at 10 mg/kg in [1] (setting [5]) amounted to 43.8%. In data set [2], the “Temp. at 4 h After Dosing” value turned out to be 37.10 ± 0.20 °C and the “Temp. at 8 h After Dosing” value worked out at 37.24 ± 0.23 °C.
For `CCCCCCN(C)C(=O)OCOC(=O)C(C)c1ccc(-c2ccccc2)c(F)c1` (stereo not shown) [Compound 67] the same measures were 48.6%, 57.3%, 37.17 ± 0.19 °C and 37.16 ± 0.20 °C.
As for `CC(C)CN(CC(C)C)C(=O)OCOC(=O)C(C)c1ccc(-c2ccccc2)c(F)c1` (stereo not shown) [Compound 69], the inhibition in vivo at 10 mg/kg stood at 65.9% in data set [1] (setting [4]) and 70.6% in data set [1] (setting [5]). For the same compound, the “Temp. at 4 h After Dosing” value in data set [2] was found to be 37.09 ± 0.18 °C. In data set [2], the “Temp. at 8 h After Dosing” value amounted to 37.13 ± 0.27 °C.
`CC(C(=O)O)c1ccc(-c2ccccc2)c(F)c1` (stereo not shown) [Flurbiprofen, reference compound]: the values for the inhibition in vivo at 10 mg/kg in data set [1] (setting [4]) and in data set [1] (setting [5]) were 35.5% and 29.9%, respectively. The IC50 – broadly, the point on the concentration scale where inhibition reaches its midpoint – is over 100 µM in the data set on NUGC-4; over 100 µM in the data set on H460; over 100 µM in the data set with U87; 85.5 µM in the data set on Eca-109; over 100 µM in the data set on MM.1S; 34.1 µM with U251. For the same compound, the “Temp. at 4 h After Dosing” value in data set [2] was determined as 37.49 ± 0.43 °C. Further, the “Temp. at 8 h After Dosing” value in data set [2] is 37.67 ± 0.39 °C.
In the case of “Flurbiprofen axetil [reference compound]”, the “Toe Swelling Inhibition Rate at 6 h” value in data set [1] (6 h) is 35.53%**. In data set [1] (24 h), the “Toe Swelling Inhibition Rate at 24 h” value is reported as 22.85%**.

These data come from patent US20260132115A1, “SUBSTITUTED 3-FLUOROBENZENEPROPANOATE COMPOUND AND PREPARATION METHOD THEREFOR, PHARMACEUTICAL COMPOSITION THEREOF, AND USE THEREOF” (TIANJIN GUDUI BIO-PHARM CO., LTD., priority 2022, published 2026).
